{"source": "paper PMC11272598", "about": "“RG7774 (Vicasinabin), an orally bioavailable cannabinoid receptor 2 (CB2R) agonist, decreases retinal vascular permeability, leukocyte adhesion, and ocular inflammation in animal models” (Frontiers in Pharmacology, 2024)", "key": {"[1]": {"biological_target": "T1, Human 15-LOX (Homo sapiens, UniProt O15296)", "T1 construct": "purchased Cayman Chemical Company #10011263", "T1 sequence (O15296 whole entry)": "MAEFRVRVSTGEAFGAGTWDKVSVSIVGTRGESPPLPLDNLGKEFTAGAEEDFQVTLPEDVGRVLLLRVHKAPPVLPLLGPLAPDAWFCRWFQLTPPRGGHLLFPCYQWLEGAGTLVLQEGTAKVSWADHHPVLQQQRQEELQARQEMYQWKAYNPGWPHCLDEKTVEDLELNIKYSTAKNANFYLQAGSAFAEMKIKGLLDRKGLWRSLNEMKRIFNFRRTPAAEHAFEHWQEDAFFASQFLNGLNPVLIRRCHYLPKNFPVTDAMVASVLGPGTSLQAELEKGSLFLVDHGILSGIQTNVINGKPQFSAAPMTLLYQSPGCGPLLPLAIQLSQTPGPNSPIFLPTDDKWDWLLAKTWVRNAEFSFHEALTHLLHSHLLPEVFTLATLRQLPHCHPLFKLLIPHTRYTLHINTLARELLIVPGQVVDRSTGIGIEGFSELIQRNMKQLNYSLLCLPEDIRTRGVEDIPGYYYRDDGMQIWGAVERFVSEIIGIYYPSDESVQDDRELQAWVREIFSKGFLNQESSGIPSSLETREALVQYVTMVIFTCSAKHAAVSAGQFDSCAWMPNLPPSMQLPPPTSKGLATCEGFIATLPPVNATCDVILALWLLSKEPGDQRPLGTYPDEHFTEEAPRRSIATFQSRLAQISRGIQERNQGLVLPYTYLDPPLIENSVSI", "assay": "Human 15-LOX assay", "type": "biochemical", "conditions": "RG7774 10 µM; read-out: Mean ± SEM % inhibition of control, Human 15-LOX", "protocol": "The inhibitory effects of different concentrations of RG7774 (0.1-500 µM) on the activities of human recombinant 5-LOX (Cayman Chemical Company #60402), 15-LOX (Cayman Chemical Company #10011263), and human platelet-derived 12-LOX were determined using the Biovision Lipoxygenase Activity Assay Kit (#BVN-K978-100). This kit converts the LOX substrate to an intermediate that reacted with the probe, generating a fluorescent product. The effect of RG7774 (preincubated for 15 min) at 10 µM on LOXs (5-LOX: 0.5 or 1.2 µg; 12-LOX: 20 µg; 15-LOX: 0.23 or 0.3 µg) was ascertained by adding the compounds directly to the incubation medium and the fluorescent signal, recorded at excitation/emission 500/536 nm at 30 sec intervals for 30-40 min, was directly proportional to LOX activity. […] The percentage of human 5-, 12-, and 15-LOX activity (control) was estimated from the amount of oxidized probe in the reaction using a standard curve."}, "[2]": {"tested_on": "Human DAGL", "assay": "Human DAGL assay (HaCaT cells)", "type": "biochemical", "conditions": "RG7774 10 µM", "method": "Mouse brain or human HaCaT cells (CLS Cell Lines Service, GmbH, Eppelheim, Germany) were homogenized in 50 mM Tris-HCl (pH 7.4) using a glass potter, and homogenates were centrifuged at 4°C sequentially at 800 g (10 min) and 10,000 g (30 min). The final pellet (80–200 µg) was resuspended in 50 mM Tris-HCl (pH 7.4) containing 10 mM CaCl2 and incubated at 37°C for 30 min with sn-1[^14C]-stearoyl-2-arachidonoyl-glycerol (100 µM) (ARC, MO, USA). Reactions were stopped by adding chloroform/methanol (2:1, v/v), and the organic phase was dried and fractionated by thin-layer chromatography on silica gel, as previously reported. Levels of 1[^14C]-stearoyl acid radioactivity were determined by cutting the appropriate band from the gel and analyzing using a β-scintillation counter. Mouse cells were preincubated for 15 min with RG7774 (10 µM) and added to the incubation medium. Human cells were preincubated for 15 min with 8 different concentrations of RG7774 (0.1-500 µM) and added to the incubation medium. Control experiments were carried out in the presence of the selective DAGL inhibitor, D053 (10 µM)."}, "[3]": {"biological_target": "T2, Mouse MAGL (Mus musculus, UniProt O35678)", "T2 construct": "Mouse brain or human U937 cell extracts (ATCC, Manassas, VI, USA); from tissue; host or cells: mouse brain, 100,000 g supernatant", "T2 sequence (O35678 whole entry)": "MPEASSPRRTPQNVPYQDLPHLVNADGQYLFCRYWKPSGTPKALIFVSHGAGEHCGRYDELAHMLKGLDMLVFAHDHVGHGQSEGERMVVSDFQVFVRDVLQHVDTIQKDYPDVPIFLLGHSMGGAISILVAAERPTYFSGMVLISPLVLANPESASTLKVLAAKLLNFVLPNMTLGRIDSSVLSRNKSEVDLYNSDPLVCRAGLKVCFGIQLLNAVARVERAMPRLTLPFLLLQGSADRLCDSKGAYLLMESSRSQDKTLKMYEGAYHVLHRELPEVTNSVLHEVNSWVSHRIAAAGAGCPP", "assay": "Mouse MAGL assay (brain)", "type": "biochemical", "conditions": "RG7774 10 µM; read-out: Mean ± SEM % inhibition of control, Mouse MAGL", "method": "The final supernatant was incubated with [^3H]-2-OG (10 µM) (ARC, MO, USA) at 37°C for 30 min as previously described, and reactions were stopped with a 2:1 (v/v) mixture of chloroform/methanol. [^3H]-glycerol release in the aqueous phase was measured by scintillation counting. […] Human supernatant (100 µg) was preincubated for 15 min at RT with 8 different concentrations of RG7774 (0.1-500 µM) in the incubation medium."}, "[4]": {"tested_on": "LPS-induced leukocyte adhesion", "assay": "LPS-induced leukocyte adhesion in mice with EIU (IVM)", "type": "in vivo, BALB/c mice", "conditions": "6 h after LPS", "method": "Male BALB/c mice aged 8–10 weeks and weighing 21–26 g (Charles River, QC, Canada) were housed in individually ventilated Allentown cages (Allentown Inc., NJ, United States). Maximum density was n = 5 per cage, with the same litter and sex. Male Lewis rats aged 7–10 weeks and weighing 200–300 g (Charles River, QC, Canada) were housed in static cages (Allentown Inc., NJ, United States), n = 2 per cage with the same litter and sex. Both mice and rats were maintained in a controlled environment (21°C–22°C, humidity range 40%–60%, and a 12 h light/dark cycle), with unrestricted access to food and water. All experiments were conducted in accordance with the standards and procedures of the Canadian Council on Animal Care ([CCAC, 2024]) and were approved by the Dalhousie University Committee on Laboratory Animals. The protocol #13-027 was approved for experimental work in mice. […] All experiments were performed and are reported in accordance with the ARRIVE guidelines ([Kilkenny et al., 2010]; [McGrath et al., 2010]).\nMice and rats were anesthetized with 5% isoflurane in 100% O2 and intraperitoneal (IP) injection of sodium pentobarbital (65 mg/kg), respectively, before receiving IVT injections of sterile 0.9% saline solution (control) or 125 ng/μL LPS (L8274, Sigma-Aldrich, St. Louis, MO, United States) diluted in 0.9% saline. Injections were administered through the pars plana using a 30-gauge needle and Hamilton syringe (Hamilton Company, Reno, NV, United States) with the assistance of a WILD M37 dissecting microscope (Leitz Canada, Vaughan, ON, Canada). Mice received 2 μL of the LPS solution; rats received 5 μL. To avoid touching the lens or damaging the eye, the tip of the needle was directed toward the posterior pole and only the beveled tip (2–3 mm) was allowed to enter the vitreal cavity. […]\nIVM was used for in vivo investigations of LPS-induced leukocyte recruitment as previously described ([Toguri et al., 2014]). […] The depth of anesthesia throughout the procedure was assessed by the absence of a toe-pinch reflex. […]"}}}
{"compound": "Cn1nnnc1Cn1nnc2c(N3CC[C@H](O)C3)nc(C(C)(C)C)nc21", "note": "[RG7774, (S)-1-(5-tert-butyl-3-[(1-methyl-1H-tetrazol-5-yl)methyl]-3H-[1,2,3]triazolo[4,5-d]pyrimidin-7-yl)pyrrolidin-3-ol]", "values": [{"measurement": "inhibition at 10 µM", "setting": "[1]", "value": -8.7, "unit": "%"}, {"measurement": "Mean ± SEM % inhibition of control, Human DAGL", "setting": "[2]", "value": "4.2 ± 52.2", "unit": "%"}, {"measurement": "inhibition at 10 µM", "setting": "[3]", "value": "2.7 ± 11.7", "unit": "%"}, {"measurement": "decrease in leukocyte adhesion compared to vehicle control", "setting": "[4]; single IV 0.03 mg/kg", "value": 21, "unit": "%"}, {"measurement": "decrease in leukocyte adhesion compared to vehicle control", "setting": "[4]; single IV 0.3 mg/kg", "value": 65, "unit": "%"}, {"measurement": "decrease in leukocyte adhesion compared to vehicle control", "setting": "[4]; single IV 3 mg/kg", "value": 82, "unit": "%"}]}
